In patent US20030032602A1, “Methods and compositions for collagen homeostasis” (priority 2001, published 2003):

Tested on: collagenase from Clostridium histolyticum (EC 3.4.24.3)
Assay: Inhibition of collagenase with fluorophor labeled Gelatin-FL, Collagen I-FL and Collagen IV-FL as substrate
Assay type: biochemical
Conditions: substrates collagen I, collagen IV and denatured collagen (gelatin), fluorescence-labeled; incubation 60 min at 37° C.; FIGS. 1A-1C
Description: The following examples have been provided to illustrate various aspects of the inventive subject matter. More particularly, all examples employed commercially available collagenase from Clostridium histolyticum (EC 3.4.24.3; Fluka Chemie AG, Switzerland) and commercially available collagen-I and collagen-IV (Molecular Probes, OR, USA).
Inhibition of collagenase from Clostridium histolyticum was determined using fluorophor labeled Gelatin-FL, Collagen I-FL and Collagen IV-FL as substrate. Negative control was Mg ascorbyl-2-phosphate (MAP), and exemplary boron-containing compounds were AB(F-D) and AB (V-E), which represented two different batches of potassium ascorbato-borates. The assay was performed under standard conditions with incubation and of substrate for 60 min at 37° C. and fluorescence was measured in a standard fluorometer. The results of the inhibition experiments are depicted in FIGS. 1A-1C. With respect to the inhibitors, the first column represents the negative control MAP, while the second and third columns represent exemplary boron-containing compounds AB(F-D) (potassium ascorbato-borate) and AB(V-E) (potassium ascorbato-borate). […] Moreover, additional experiments (data not shown) confirmed the inhibitory character of numerous other boron-containing compounds, and especially boron-containing compounds in which borate is complexed by one or more ligands.

Substance: potassium ascorbato-borate [AB(F-D)]
- inhibition of collagenase: specific inhibitory compounds for collagenase
